Assay results reported in publication PMC5048659 (Arthritis Research & Therapy, 2016).
Entries after “also recorded” stand apart in the source; their conditions may differ.

Experiments:
OAT1 = target: T1, OAT1 (Homo sapiens, UniProt Q4U2R8); experiment: OAT1 6-carboxyfluorescein transport in transfected HEK-293T cells; assay type: cell-based; settings: 5 μM 6-carboxyfluorescein, 2 min; mean ± SEM; read-out: Potency (IC50) against OAT1
T1 construct: host or cells: HEK-293T, transient transfection
T1 sequence (Q4U2R8 1-563): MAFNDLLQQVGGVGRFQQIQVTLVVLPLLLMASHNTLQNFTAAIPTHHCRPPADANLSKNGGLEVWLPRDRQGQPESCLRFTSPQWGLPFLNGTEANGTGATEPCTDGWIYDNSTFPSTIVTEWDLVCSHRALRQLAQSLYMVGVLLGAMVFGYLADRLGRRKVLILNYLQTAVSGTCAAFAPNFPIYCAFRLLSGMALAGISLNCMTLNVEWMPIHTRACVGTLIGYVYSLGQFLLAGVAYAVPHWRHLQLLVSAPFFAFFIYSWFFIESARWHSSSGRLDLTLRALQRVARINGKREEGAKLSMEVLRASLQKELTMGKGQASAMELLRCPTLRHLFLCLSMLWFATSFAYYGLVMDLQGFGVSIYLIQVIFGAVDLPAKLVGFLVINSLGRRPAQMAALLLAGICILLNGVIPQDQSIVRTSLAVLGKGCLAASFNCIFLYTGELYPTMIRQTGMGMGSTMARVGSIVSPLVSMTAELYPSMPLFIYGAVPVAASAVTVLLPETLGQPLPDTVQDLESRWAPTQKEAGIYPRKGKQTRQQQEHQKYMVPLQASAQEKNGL
Method: The cells were washed three times in a buffer containing 125 mM NaCl and 25 mM HEPES, pH 7.3, and then lysed in 1 M sodium hydroxide prior to fluorescence measurement.

PPARγ = target: T2, PPARγ (Homo sapiens, UniProt P37231); experiment: Human PPARγ luciferase reporter assay; assay type: cell-based; settings: reporter cells, 24 hours, up to 100 μM
T2 sequence (P37231 238-505 limits assumed): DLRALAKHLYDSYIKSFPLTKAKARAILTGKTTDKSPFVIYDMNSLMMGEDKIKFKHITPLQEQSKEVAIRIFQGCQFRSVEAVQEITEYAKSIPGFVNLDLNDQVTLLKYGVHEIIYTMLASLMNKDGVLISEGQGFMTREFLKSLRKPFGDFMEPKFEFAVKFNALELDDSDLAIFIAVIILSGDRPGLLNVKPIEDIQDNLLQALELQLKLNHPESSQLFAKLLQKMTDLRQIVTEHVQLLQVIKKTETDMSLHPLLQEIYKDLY
Method: This assay was performed using nonhuman mammalian cells engineered to provide a PPARγ-responsive luciferase reporter gene and constitutive, high levels of PPARγ (Indigo Biosciences catalog number IB00101). Cells were incubated with compounds for 24 hours, and then luciferase activity was measured using a luminometer. Agonist activity was reported as fold activation over a vehicle control. A positive control agonist, rosiglitazone, was included in each batch run to verify cell integrity.

[1] = cited from earlier work
GLUT9 (SLC2A9v2/GLUT9ΔN) = target: T3, GLUT9 (SLC2A9v2/GLUT9ΔN) (Homo sapiens, UniProt Q9NRM0); experiment: GLUT9 urate transport in cRNA-injected oocytes; assay type: cell-based
T3 construct: expressed in transfected cells
T3 sequence (Q9NRM0 1-511 isoform Q9NRM0-2): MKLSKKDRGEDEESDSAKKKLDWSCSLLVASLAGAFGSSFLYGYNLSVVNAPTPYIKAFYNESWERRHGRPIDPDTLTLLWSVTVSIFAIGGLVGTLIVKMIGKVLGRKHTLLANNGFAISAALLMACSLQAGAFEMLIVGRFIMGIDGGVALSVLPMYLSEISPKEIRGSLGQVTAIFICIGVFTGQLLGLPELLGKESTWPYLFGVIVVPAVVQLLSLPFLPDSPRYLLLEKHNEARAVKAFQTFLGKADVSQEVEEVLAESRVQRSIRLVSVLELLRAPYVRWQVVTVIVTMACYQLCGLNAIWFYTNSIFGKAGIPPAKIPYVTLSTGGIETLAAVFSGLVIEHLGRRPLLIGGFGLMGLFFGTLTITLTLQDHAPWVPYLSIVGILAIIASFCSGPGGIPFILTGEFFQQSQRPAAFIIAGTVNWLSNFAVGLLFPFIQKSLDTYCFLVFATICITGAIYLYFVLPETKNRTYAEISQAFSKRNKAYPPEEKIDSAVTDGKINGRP
Method: For GLUT9, SLC2A9v2/GLUT9ΔN in pCMV6/neo was linearized with XmaI and NotI and cRNA transcribed using the mMessage mMachine T7 kit (Ambion). Oocytes were injected with either water or 25 ng cRNA and incubated for 3 to 5 days in ND96 buffer. For each point, 10 oocytes were incubated with 100 μM ^14C-uric acid in ND96 buffer with and without test compounds at room temperature for 60 minutes. The oocytes were then washed three to four times in ice-cold ND96 buffer and lysed prior to scintillation counting.

[2] = Lesinurad plasma pharmacokinetics and urinary excretion in the clinic; assay type: in vivo, human; settings: single 200-mg dose
Method: (§1) In each treatment period, plasma samples were collected within 30 minutes before dosing (pre-dose) and at 0.5, 1, 1.5, 2, 3, 4, 5, 6, 8, 10, 12, 16, 24, 30, 36, and 48 hours post-dose. Urine (total catch) was collected pretreatment at hours –24 to –18, –18 to –12, and –12 to 0, and post-dose at hours 0 to 6, 6 to 12, 12 to 24, 24 to 30, 30 to 36, and 36 to 48.
(§2) After protein precipitation of the samples, lesinurad levels in plasma and urine were measured at Ardea Biosciences by quantitative high performance liquid chromatography with tandem mass spectrometry. […] The parameters from individual profiles of lesinurad were determined using noncompartmental methods. Urine samples were analyzed for uric acid and creatinine using enzymatic methods by Covance Clinical Research Unit (Dallas, TX, USA), and pharmacodynamic (PD) parameters were determined by Covance Clinical Research Unit using SAS, Version 8.2 (SAS Institute Inc). Calculated PD parameters for uric acid included urinary excretion, renal clearance, and FEUA. FEUA was calculated by dividing the uric acid clearance by the creatinine clearance.

OAT1 and OAT3 = settings: in vivo; cited from earlier work
healthy volunteers = experiment: Clinical effect on fractional excretion of uric acid (phase 1 RDEA594-109); assay type: in vivo, human; settings: for Peak FEUA: within 6 hours, baseline 5.8 %
Method: as §1, §2

[3] = cited from earlier work; remark: listed apart in the source

O=C(O)CSc1nnc(Br)n1-c1ccc(C2CC2)c2ccccc12 [Lesinurad, 2-((5-bromo-4-(4-cyclopropylnaphthalen-1-yl)-4H-1,2,4-triazol-3-yl)thio) acetic acid]
IC50 (OAT1): 3.9 ± 0.94 µM | PPARγ activation (PPARγ): no PPARγ agonism | Plasma protein binding [1]: 98.4% | IC50 (GLUT9 (SLC2A9v2/GLUT9ΔN); 100 μM 14C-uric acid, 60 min, read-out: Potency against GLUT9): > 100 µM | Effect on GLUT9 urate transport (GLUT9 (SLC2A9v2/GLUT9ΔN); compound at up to 100 μM): no effect; also recorded: does not inhibit | Maximal plasma concentration [2]: 29 µM | Predicted maximal plasma-free concentration ([2]; from Cmax and 98.4 % protein binding): 0.46 µM | Effect on renal clearance and PD of the OAT substrate furosemide (OAT1 and OAT3): no effect | EC50 (healthy volunteers; Homo sapiens, single 200-, 400- or 600-mg doses, healthy volunteers, read-out: Half-maximal effective plasma concentration for elevating FEUA): 13 µM | FEUA in some individuals with high plasma lesinurad (healthy volunteers; healthy volunteers, single doses): up to 35% | Elevation of FEUA (healthy volunteers; single 200-mg dose, after 6 hours, p < 0.001): 3.6 fold | Peak FEUA (healthy volunteers; single 200-mg oral dose): 21.8% | Peak FEUA (healthy volunteers; single 400-mg oral dose): 26.7% | Peak FEUA (healthy volunteers; single 600-mg oral dose): 32.3% | Fraction of compound excreted via urine [3]: approximately one third
